Reference: patent US12157730B2, “Heteroaryl derivative, method for producing same, and pharmaceutical composition comprising same as effective component” (VORONOI INC., priority 2019, dated 2024)

Molecular target: T1, Ba/F3 cell EGFR Exon20 ins NPH (Homo sapiens, UniProt P00533, INS773NPH)
T1 construct: expressed in transfected cells; host or cells: Ba/F3
Assay: Ba/F3 cell proliferation suppression, EGFR Exon20 ins NPH
Format: cell-based
Conditions: GI50 class; Ba/F3 cell line with NPH inserted at Exon20 of EGFR; 72 hours
Method in brief: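 Cells (3000–5000/well) plated 24 h before compound, 12-point 3-fold dilutions at 0.3 nM to 50 um final; Ba/F3 lines grown with 5 ng/ml IL-3. Viability by CellTiter-Glo luminescence after 72 h, growth ratio vs control, GI50 from curves; triplicate.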

Row | SMILES | Ba/F3 (NPH) Activity
1 | C=CCN1CCN(C2CCN(c3cc(OC)c(Nc4cc(N5OCC[C@@H]5c5ccc(F)c(Cl)c5)ncn4)cc3NC(=O)C=C)CC2)CC1 [Example 89, N-(2-(4-(4-allylpiperazine-1-yl)piperidine-1-yl)-5-((6-((R)-3-(3-chloro-4-fluorophenyl)isoxazolidine-2-yl)pyrimidine-4-yl)amino)-4-methoxyphenyl) acrylamide] | A (GI50 < 50 nM)
2 | C=CC(=O)Nc1cc(Nc2cc(N3OCC[C@H]3c3c(F)cccc3F)ncn2)c(OC)cc1N1CCN(C)CC1 [compound 307, N-(5-((6-((S)-3-(2,6-difluorophenyl)isoxazolidine-2-yl)pyrimidine-4-yl)amino)-4-methoxy-2-(4-methylpiperazine-1-yl)phenyl)acrylamide] | C (500 nM ≤ GI50 < 5000 nM)
3 | C=CC(=O)Nc1cc(Nc2cc(N3OCC[C@@H]3c3cccc(Cl)c3F)ncn2)c(OC)cc1N1CCC(N2CCO[C@H](C)C2)CC1 [compound 357, N-(5-((6-((R)-3-(3-chloro-2-fluorophenyl)isoxazolidine-2-yl)pyrimidine-4-yl)amino)-4-methoxy-2-(4-((R)-2-methylmorpholino)piperidine-1-yl)phenyl) acrylamide] | A (GI50 < 50 nM)
4 | C=CC(=O)Nc1cc(Nc2cc(N3OCC[C@@H]3Cc3cccc(Cl)c3C)ncn2)c(OC)cc1N1CCC(N2CCN(C3CC3)[C@H](C)C2)CC1 [compound 1027, N-(5-((6-((S)-3-(3-chloro-2-methylbenzyl)isoxazolidine-2-yl)pyrimidine-4-yl)amino)-2-(4-((R)-4-cyclopropyl-3-methylpiperazine-1-yl)piperidine-1-yl)-4-methoxyphenyl) acrylamide] | A (GI50 < 50 nM)
5 | C=CC(=O)Nc1cc(Nc2cc(N3OCC[C@@H]3c3cccc(C(F)(F)F)c3)ncn2)c(OC)cc1N1CCC(N2C[C@H]3C[C@@H]2CO3)CC1 [compound 943, N-(2-(4-((1R,4R)-2-oxa-5-azabicyclo [2.2.1]heptane-5-yl)piperidine-1-yl)-4-methoxy-5-((6-((R)-3-(3-(trifluoromethyl)phenyl)isoxazolidine-2-yl)pyrimidine-4-yl)amino)phenyl) acrylamide] | A (GI50 < 50 nM)
6 | C=CC(=O)Nc1cc(Nc2cc(N3OCC[C@@H]3c3ccc(F)c(F)c3)ncn2)c(OC)cc1N1CCC(N2CCN(C3CCC3)CC2)CC1 [Example 186, N-(2-(4-(4-cyclobutylpiperazine-1-yl)piperidine-1-yl)-5-((6-((R)-3-(3,4-difluorophenyl)isoxazolidine-2-yl)pyrimidine-4-yl)amino)-4-methoxyphenyl) acrylamide] | A (GI50 < 50 nM)
7 | C=CC(=O)Nc1cc(Nc2cc(N3OCC[C@@H]3c3ccccc3)ncn2)c(OC)cc1N1CCC(N2CCN(C3CCCC3)CC2)CC1 [Example 97, N-(2-(4-(4-cyclopentylpiperazine-1-yl)piperidine-1-yl)-4-methoxy-5-((6-((R)-3-phenylisoxazolidine-2-yl)pyrimidine-4-yl)amino)phenyl) acrylamide] | A (GI50 < 50 nM)
8 | C=CC(=O)Nc1cc(Nc2cc(N3OCC[C@@H]3c3ccc(C)nc3)ncn2)c(OC)cc1N1CC[C@H](N(C)C)C1 [Example 222, N-(2-((S)-3-(dimethylamino)pyrolidine-1-yl)-4-methoxy-5-((6-((R)-3-(6-methylpyridine-3-yl)isoxazolidine-2-yl)pyrimidine-4-yl)amino)phenyl)acrylamide] | B (50 nM ≤ GI50 < 500 nM)
9 | C=CC(=O)Nc1cc(Nc2cc(N3OCC[C@@H]3c3ccc(F)cc3F)ncn2)c(OC)cc1-n1cnc(C)c1 [compound 386, N-(5-((6-((R)-3-(2,4-difluorophenyl)isoxazolidine-2-yl)pyrimidine-4-yl)amino)-4-methoxy-2-(4-methyl-1H-imidazole-1-yl)phenyl)acrylamide] | B (50 nM ≤ GI50 < 500 nM)
10 | C=CC(=O)Nc1cc(Nc2cc(N3OCC[C@@H]3c3ccc(F)cc3)ncn2)c(OC)cc1N1CCC(N2CCN(C3COC3)CC2)CC1 [Example 85, N-(5-((6-((R)-3-(4-fluorophenyl)isoxazolidine-2-yl)pyrimidine-4-yl)amino)-4-methoxy-2-(4-(4-(oxetane-3-yl)piperazine-1-yl)piperidine-1-yl)phenyl) acrylamide] | A (GI50 < 50 nM)
11 | C=CC(=O)Nc1cc(Nc2cc(N3OCC[C@@H]3Cc3ccccc3)ncn2)c(OC)cc1N1CCN(C)CC1 [compound 945, N-(5-((6-((S)-3-benzylisoxazolidine-2-yl)pyrimidine-4-yl)amino)-4-methoxy-2-(4-methylpiperazine-1-yl)phenyl)acrylamide] | A (GI50 < 50 nM)
12 | C=CC(=O)Nc1cc(Nc2cc(N3OCC[C@@H]3c3ccc(Cl)c(F)c3)ncn2)c(OC)cc1N1CCC(N2CCN(C(C)C)CC2)CC1 [compound 708, N-(5-((6-((R)-3-(4-chloro-3-fluorophenyl)isoxazolidine-2-yl)pyrimidine-4-yl)amino)-2-(4-(4-isopropylpiperazine-1-yl)piperidine-1-yl)-4-methoxyphenyl) acrylamide] | A (GI50 < 50 nM)
13 | C=CC(=O)Nc1cc(Nc2cc(N3OCC[C@@H]3c3cc(F)ccc3F)ncn2)c(OC)cc1N1CCN(CCC)CC1 [compound 300, N-(5-((6-((R)-3-(2,5-difluorophenyl)isoxazolidine-2-yl)pyrimidine-4-yl)amino)-4-methoxy-2-(4-propylpiperazine-1-yl)phenyl)acrylamide] | A (GI50 < 50 nM)
14 | C=CC(=O)Nc1cc(Nc2cc(N3OCC[C@@H]3c3cccc(F)c3)ncn2)c(OC)cc1N1C[C@@H]2C[C@H]1CO2 [compound 832, N-(2-((1S,4S)-2-oxa-5-azabicyclo[2.2.1]heptane-5-yl)-5-((6-((R)-3-(3-fluorophenyl)isoxazolidine-2-yl)pyrimidine-4-yl)amino)-4-methoxyphenyl) acrylamide] | A (GI50 < 50 nM)
15 | C=CC(=O)Nc1cc(Nc2cc(N3OCC[C@@H]3c3ccc(F)cc3F)ncn2)c(OC)cc1-n1cncc1C [compound 377, N-(5-((6-((R)-3-(2,4-difluorophenyl)isoxazolidine-2-yl)pyrimidine-4-yl)amino)-4-methoxy-2-(5-methyl-1H-imidazole-1-yl)phenyl)acrylamide] | B (50 nM ≤ GI50 < 500 nM)
16 | C=CC(=O)Nc1cc(Nc2cc(N3OCC[C@@H]3c3cc(F)cc(F)c3)ncn2)c(OC)cc1N1CCN(C2CC2)CC1 [compound 438, N-(2-(4-cyclopropylpiperazine-1-yl)-5-((6-((R)-3-(3,5-difluorophenyl)isoxazolidine-2-yl)pyrimidine-4-yl)amino)-4-methoxyphenyl) acrylamide] | A (GI50 < 50 nM)
17 | C=CC(=O)Nc1cc(Nc2cc(N3OCC[C@@H]3c3ccc(F)c(F)c3F)ncn2)c(OC)cc1N1CCN(CC)CC1 [compound 570, N-(2-(4-ethylpiperazine-1-yl)-4-methoxy-5-((6-((R)-3-(2,3,4-trifluorophenyl)isoxazolidine-2-yl)pyrimidine-4-yl)amino)phenyl) acrylamide] | A (GI50 < 50 nM)
18 | C=CC(=O)Nc1cc(Nc2cc(N3OCC[C@@H]3c3cccc(F)c3F)ncn2)c(OC)cc1N1CCC(N2CCN(CCC)CC2)CC1 [compound 342, N-(5-((6-((R)-3-(2,3-difluorophenyl)isoxazolidine-2-yl)pyrimidine-4-yl)amino)-4-methoxy-2-(4-(4-propylpiperazine-1-yl)piperidine-1-yl)phenyl)acrylamide] | A (GI50 < 50 nM)
19 | C=CC(=O)Nc1cc(Nc2cc(N3OCC[C@@H]3c3cc(F)cc(Cl)c3)ncn2)c(OC)cc1N1CCC(O)CC1 [compound 591, N-(5-((6-((R)-3-(3-chloro-5-fluorophenyl)isoxazolidine-2-yl)pyrimidine-4-yl)amino)-2-(4-hydroxypiperidine-1-yl)-4-methoxyphenyl) acrylamide] | A (GI50 < 50 nM)
20 | C=CC(=O)Nc1cc(Nc2cc(N3OCC[C@@H]3c3cc(F)cc(F)c3)ncn2)c(OC)cc1N1CCC(N2CCN(C)C[C@H]2C)CC1 [compound 761, N-(5-((6-((R)-3-(3,5-difluorophenyl)isoxazolidine-2-yl)pyrimidine-4-yl)amino)-2-(4-((R)-2,4-dimethylpiperazine-1-yl)piperidine-1-yl)-4-methoxyphenyl) acrylamide] | A (GI50 < 50 nM)
21 | C=CC(=O)Nc1cc(Nc2cc(N3OCC[C@@H]3c3ccc(C)nc3)ncn2)c(OC)cc1N1C[C@H]2C[C@@H]1CO2 [Example 224, N-(2-((1R,4R)-2-oxa-5-azabicyclo[2.2.1]heptane-5-yl)-4-methoxy-5-((6-((R)-3-(6-methylpyridine-3-yl)isoxazolidine-2-yl)pyrimidine-4-yl)amino)phenyl)acrylamide] | C (500 nM ≤ GI50 < 5000 nM)
22 | C=CC(=O)Nc1cc(Nc2cc(N3OCC[C@@H]3c3ccc(C)nc3)ncn2)c(OC)cc1N1CCC(N2CCN(C(C)C)CC2)CC1 [Example 230, N-(2-(4-(4-isopropylpiperazine-1-yl)piperidine-1-yl)-4-methoxy-5-((6-((R)-3-(6-methylpyridine-3-yl)isoxazolidine-2-yl)pyrimidine-4-yl)amino)phenyl)acrylamide] | B (50 nM ≤ GI50 < 500 nM)
23 | C=CC(=O)Nc1cc(Nc2cc(N3OCC[C@@H]3c3ccc(Cl)c(Cl)c3)ncn2)c(OC)cc1N1CC[C@@H](N(C)C)C1 [compound 682, N-(5-((6-((R)-3-(3,4-dichlorophenyl)isoxazolidine-2-yl)pyrimidine-4-yl)amino)-2-((R)-3-(dimethylamino)pyrolidine-1-yl)-4-methoxyphenyl) acrylamide] | A (GI50 < 50 nM)
24 | C=CC(=O)Nc1cc(Nc2cc(N3OCC[C@@H]3c3ccc(Cl)cc3)ncn2)c(OC)cc1N1CC[C@@H](N(C)C)C1 [compound 695, N-(5-((6-((R)-3-(4-chlorophenyl)isoxazolidine-2-yl)pyrimidine-4-yl)amino)-2-((R)-3-(dimethylamino)pyrolidine-1-yl)-4-methoxyphenyl) acrylamide] | B (50 nM ≤ GI50 < 500 nM)
